Results reported in patent US20250282827A1, “LIPIDATED POLYMYXIN ANALOGUES” (priority 2021, published 2025).
Converted amounts (≈) assume the structure as drawn. Positions of bridges follow the written chain, without caps; N, C: chain ends. Non-standard residues stand in square brackets, D forms with d. Residues, ends and D or L forms follow the SMILES beside them. *: point of attachment. Ethyl(2-decanoyloxy) = CCCCCCCCCC(=O)OCC*; Ethyl(2-butanoyloxy) = CCCC(=O)OCC*; Ethyl(2-propionyloxy) = CCC(=O)OCC*; Ethyl(2-OPiv) = CC(C)(C)C(=O)OCC*; hCys = N[C@@H](CCS)C(=O)O; Dab = NCC[C@H](N)C(=O)O; Dap = NC[C@H](N)C(=O)O; X13 = CCCCC(=O)OCC*; Mpa = O=C(O)CCS

How the values were obtained:
[1] = test system: K. pneumoniae ATCC MS6671; type: cell-based, Klebsiella pneumoniae; details: ATCC MS6671
Excerpt: (§1) All 81 compounds prepared in Examples 2 and 3 underwent screening against a panel of Gram-negative bacterium to assess their ability to inhibit bacterial growth. […] The median value is presented.

K. pneumoniae ATCC 33495 = type: cell-based, Klebsiella pneumoniae; details: ATCC 33495
Excerpt: as §1

[2] = test system: K. pneumoniae ATCC 700603; type: cell-based, Klebsiella pneumoniae; details: ATCC 700603
Excerpt: as §1

A. baumannii ATCC 19606 = type: cell-based, Acinetobacter baumannii; details: ATCC 19606
Excerpt: as §1

E. coli ATCC 25922 = type: cell-based, Escherichia coli; details: ATCC 25922
Excerpt: as §1

P. aeruginosa ATCC 27853 = type: cell-based, Pseudomonas aeruginosa; details: ATCC 27853
Excerpt: as §1

E. coli ATCC MS8345 = type: cell-based, Escherichia coli; details: ATCC MS8345
Excerpt: as §1
Expansion of the polymyxin macrocycle by substituting […]) offered little advantage in antimicrobial activity but was generally well tolerated although for A. baumanni and P. aeruginosa this was detrimental.

CCC(=O)OCCSCC[C@H](N)C(=O)N[C@@H](CCN)C(=O)N[C@H](C(=O)N[C@@H](CCN)C(=O)N[C@H]1CCNC(=O)[C@H]([C@@H](C)O)NC(=O)[C@H](CCN)NC(=O)[C@H](CCN)NC(=O)[C@H](CC(C)C)NC(=O)[C@@H](Cc2ccccc2)NC(=O)[C@H](CCN)NC1=O)[C@@H](C)O [Compound 60] (H-[hCys](Ethyl(2-propionyloxy))[Dab]T[Dab][Dab][Dab][dF]L[Dab][Dab]T; lactam 5-C)
MIC K. pneumoniae ATCC MS6671 [1]: >32 µg/mL
MIC K. pneumoniae ATCC 33495 (K. pneumoniae ATCC 33495): 0.25 µg/mL (≈ 0.195 µM)
MIC K. pneumoniae ATCC 700603 [2]: 0.25 to 0.5 µg/mL
MIC A. baumannii ATCC 19606 (A. baumannii ATCC 19606): 2 µg/mL (≈ 1.56 µM)
MIC E. coli ATCC 25922 (E. coli ATCC 25922): 0.25 µg/mL (≈ 0.195 µM)
MIC P. aeruginosa ATCC 27853 (P. aeruginosa ATCC 27853): 0.5 µg/mL (≈ 0.39 µM)
MIC E. coli ATCC MS8345 (E. coli ATCC MS8345): 16 µg/mL (≈ 12.5 µM)

CCC(=O)OCCSC[C@@H](N)C(=O)N[C@@H](CCN)C(=O)N[C@H](C(=O)N[C@@H](CCN)C(=O)N[C@H]1CCNC(=O)[C@H]([C@@H](C)O)NC(=O)[C@H](CCN)NC(=O)[C@H](CCN)NC(=O)[C@H](CC(C)C)NC(=O)[C@@H](Cc2ccccc2)NC(=O)[C@H](CCN)NC1=O)[C@@H](C)O [Compound 58] (H-[dC](Ethyl(2-propionyloxy))[Dab]T[Dab][Dab][Dab][dF]L[Dab][Dab]T; lactam 5-C)
MIC K. pneumoniae ATCC MS6671 [1]: >32 µg/mL
MIC K. pneumoniae ATCC 33495 (K. pneumoniae ATCC 33495): 2 µg/mL (≈ 1.58 µM)
MIC K. pneumoniae ATCC 700603 [2]: 4 µg/mL (≈ 3.16 µM)
MIC A. baumannii ATCC 19606 (A. baumannii ATCC 19606): >32 µg/mL
MIC E. coli ATCC 25922 (E. coli ATCC 25922): 2 µg/mL (≈ 1.58 µM)
MIC P. aeruginosa ATCC 27853 (P. aeruginosa ATCC 27853): 2 µg/mL (≈ 1.58 µM)

CCCCC(=O)OCCSC[C@@H](N)C(=O)N[C@H](C(=O)N[C@@H](CCN)C(=O)N[C@H]1CCNC(=O)[C@H]([C@@H](C)O)NC(=O)[C@H](CCN)NC(=O)[C@H](CCN)NC(=O)[C@H](CC(C)C)NC(=O)[C@@H](Cc2ccccc2)NC(=O)[C@H](CCN)NC1=O)[C@@H](C)O [Compound 90] (H-[dC](X13)T[Dab][Dab][Dab][dF]L[Dab][Dab]T; lactam 4-C)
MIC K. pneumoniae ATCC MS6671 [1]: >32 µg/mL
MIC K. pneumoniae ATCC 33495 (K. pneumoniae ATCC 33495): 2 µg/mL (≈ 1.67 µM)
MIC K. pneumoniae ATCC 700603 [2]: 4 µg/mL (≈ 3.35 µM)
MIC A. baumannii ATCC 19606 (A. baumannii ATCC 19606): >16 µg/mL
MIC E. coli ATCC 25922 (E. coli ATCC 25922): 4 µg/mL (≈ 3.35 µM)
MIC P. aeruginosa ATCC 27853 (P. aeruginosa ATCC 27853): 4 µg/mL (≈ 3.35 µM)
MIC E. coli ATCC MS8345 (E. coli ATCC MS8345): >32 µg/mL

CCCC(=O)OCCSC[C@H](N)C(=O)N[C@@H](CCN)C(=O)N[C@H](C(=O)N[C@@H](CCN)C(=O)N[C@H]1CCCCNC(=O)[C@H]([C@@H](C)O)NC(=O)[C@H](CCN)NC(=O)[C@H](CCN)NC(=O)[C@H](CC(C)C)NC(=O)[C@@H](Cc2ccccc2)NC(=O)[C@H](CCN)NC1=O)[C@@H](C)O [Compound 24] (H-C(Ethyl(2-butanoyloxy))[Dab]T[Dab]K[Dab][dF]L[Dab][Dab]T; lactam 5-C)
MIC K. pneumoniae ATCC MS6671 [1]: >32 µg/mL
MIC K. pneumoniae ATCC 33495 (K. pneumoniae ATCC 33495): 1 µg/mL (≈ 0.764 µM)
MIC A. baumannii ATCC 19606 (A. baumannii ATCC 19606): >32 µg/mL
MIC E. coli ATCC 25922 (E. coli ATCC 25922): 2 µg/mL (≈ 1.53 µM)
MIC P. aeruginosa ATCC 27853 (P. aeruginosa ATCC 27853): >32 µg/mL
MIC E. coli ATCC MS8345 (E. coli ATCC MS8345): >32 µg/mL

CCCC(=O)OCCSC[C@@H](N)C(=O)N[C@H](C(=O)N[C@@H](CCN)C(=O)N[C@H]1CCNC(=O)[C@H]([C@@H](C)O)NC(=O)[C@H](CCN)NC(=O)[C@H](CCN)NC(=O)[C@H](CC(C)C)NC(=O)[C@@H](Cc2ccccc2)NC(=O)[C@H](CCN)NC1=O)[C@@H](C)O [Compound 89] (H-[dC](Ethyl(2-butanoyloxy))T[Dab][Dab][Dab][dF]L[Dab][Dab]T; lactam 4-C)
MIC K. pneumoniae ATCC MS6671 [1]: >32 µg/mL
MIC K. pneumoniae ATCC 33495 (K. pneumoniae ATCC 33495): 1 µg/mL (≈ 0.847 µM)
MIC K. pneumoniae ATCC 700603 [2]: 1 µg/mL (≈ 0.847 µM)
MIC A. baumannii ATCC 19606 (A. baumannii ATCC 19606): 4 µg/mL (≈ 3.39 µM)
MIC P. aeruginosa ATCC 27853 (P. aeruginosa ATCC 27853): 2 µg/mL (≈ 1.69 µM)
MIC E. coli ATCC MS8345 (E. coli ATCC MS8345): 32 µg/mL (≈ 27.1 µM)

CCCCCCCCCC(=O)OCCSC[C@H](N)C(=O)N[C@H](C(=O)N[C@@H](CCN)C(=O)N[C@H]1CCNC(=O)[C@H]([C@@H](C)O)NC(=O)[C@H](CCN)NC(=O)[C@H](CCN)NC(=O)[C@H](CC(C)C)NC(=O)[C@@H](Cc2ccccc2)NC(=O)[C@H](CCN)NC1=O)[C@@H](C)O [Compound 69] (H-C(Ethyl(2-decanoyloxy))T[Dab][Dab][Dab][dF]L[Dab][Dab]T; lactam 4-C)
MIC E. coli ATCC 25922 (E. coli ATCC 25922): 2 µg/mL (≈ 1.58 µM)

CCC(=O)OCCSC[C@@H](N)C(=O)N[C@H](C(=O)N[C@@H](CCN)C(=O)N[C@H]1CCNC(=O)[C@H]([C@@H](C)O)NC(=O)[C@H](CCN)NC(=O)[C@H](CCN)NC(=O)[C@H](CC(C)C)NC(=O)[C@@H](Cc2ccccc2)NC(=O)[C@H](CCN)NC1=O)[C@@H](C)O [Compound 62] (H-[dC](Ethyl(2-propionyloxy))T[Dab][Dab][Dab][dF]L[Dab][Dab]T; lactam 4-C)
MIC E. coli ATCC 25922 (E. coli ATCC 25922): 1 µg/mL (≈ 0.857 µM)

CC(C)C[C@@H]1NC(=O)[C@@H](Cc2ccccc2)NC(=O)[C@H](CCN)NC(=O)[C@@H](NC(=O)[C@H](CCN)NC(=O)[C@@H](NC(=O)[C@H](N)CSCCOC(=O)C(C)(C)C)[C@@H](C)O)CCNC(=O)[C@H]([C@@H](C)O)NC(=O)[C@H](CCN)NC(=O)[C@H](CCN)NC1=O [Compound 79] (H-[dC](Ethyl(2-OPiv))T[Dab][Dab][Dab][dF]L[Dab][Dab]T; lactam 4-C)
MIC E. coli ATCC 25922 (E. coli ATCC 25922): 0.25 µg/mL (≈ 0.209 µM)

CCC(=O)OCCSC[C@@H](N)C(=O)N[C@H](C(=O)N[C@H](CO)C(=O)N[C@H]1CCNC(=O)[C@H]([C@@H](C)O)NC(=O)[C@H](CCN)NC(=O)[C@H](CCN)NC(=O)[C@H](CC(C)C)NC(=O)[C@@H](Cc2ccccc2)NC(=O)[C@H](CCN)NC1=O)[C@@H](C)O [Compound 86] (H-[dC](Ethyl(2-propionyloxy))T[dS][Dab][Dab][dF]L[Dab][Dab]T; lactam 4-C)
MIC E. coli ATCC 25922 (E. coli ATCC 25922): 2 µg/mL (≈ 1.73 µM)

CCC(=O)OCCSCCC(=O)N[C@H](C(=O)N[C@H](CO)C(=O)N[C@H]1CCNC(=O)[C@H]([C@@H](C)O)NC(=O)[C@H](CCN)NC(=O)[C@H](CCN)NC(=O)[C@H](CC(C)C)NC(=O)[C@@H](Cc2ccccc2)NC(=O)[C@H](CCN)NC1=O)[C@@H](C)O [Compound 87] ([Mpa](Ethyl(2-propionyloxy))T[dS][Dab][Dab][dF]L[Dab][Dab]T; lactam 4-C)
MIC E. coli ATCC 25922 (E. coli ATCC 25922): 16 µg/mL (≈ 14.1 µM)

CCC(=O)OCCSC[C@H](N)C(=O)N[C@H](C(=O)N[C@@H](CCN)C(=O)N[C@H]1CCNC(=O)[C@H]([C@@H](C)O)NC(=O)[C@H](CCN)NC(=O)[C@H](CCN)NC(=O)[C@H](CC(C)C)NC(=O)[C@@H](Cc2ccccc2)NC(=O)[C@H](CCN)NC1=O)[C@@H](C)O [Compound 65] (H-C(Ethyl(2-propionyloxy))T[Dab][Dab][Dab][dF]L[Dab][Dab]T; lactam 4-C)
MIC E. coli ATCC 25922 (E. coli ATCC 25922): 64 µg/mL (≈ 54.9 µM)

CCC(=O)OCCSC[C@@H](N)C(=O)N[C@H](C(=O)N[C@@H](CN)C(=O)N[C@H]1CCNC(=O)[C@H]([C@@H](C)O)NC(=O)[C@H](CCN)NC(=O)[C@H](CCN)NC(=O)[C@H](CC(C)C)NC(=O)[C@@H](Cc2ccccc2)NC(=O)[C@H](CCN)NC1=O)[C@@H](C)O [Compound 82] (H-[dC](Ethyl(2-propionyloxy))T[Dap][Dab][Dab][dF]L[Dab][Dab]T; lactam 4-C)
MIC E. coli ATCC 25922 (E. coli ATCC 25922): 1 µg/mL (≈ 0.868 µM)
